Test results as given in patent US20220080015A1, “METHOD OF PREVENTING AND TREATING NEURODEGENERATIVE DISORDERS USING SOPHORA JAPONICA L. EXTRACT AS ACTIVE INGREDIENT” (UNIVERSITY-INDUSTRY COOPERATION GROUP OF KYUNG HEE …, priority 2016, published 2022).

Tested on: Alzheimer's disease-induced mouse model (amyloid beta1-42 peptide-infused mouse model)
Test: Morris water maze test (memory test)
Type: in vivo, C57BL/6 mouse
Conditions: Aβ-infused mice + donepezil 1 mg/kg (positive control); platform removed, 60 seconds free swimming; average ± S.E.M.
Experimental: Specifically, the following experiment was carried out by applying a conventional Morris method. First, a mouse was transferred to a behavior observation chamber and stabilized one hour before the initiation of the experiment. The maze dimension includes a diameter of 90 cm and a height of 32.5 cm, and the diameter of a white platform is 5 cm. In the periphery of the underwater maze, spatial cues such as a computer system connected with a video camera and a device for controlling a water temperature were always regularly maintained. Afterward, the maze was filled with water so that the platform is installed 1 cm below the water level, such that a mouse cannot see the platform. The maze was divided into quadrants using four markers, the quadrants were classified as northeast (NE), northwest (NW), southeast (SE), and southwest (SW), and the platform was installed in one quadrant of the maze. […] On the sixth day, the platform was removed from the maze, and then the residence time of a mouse in the quadrant in which the platform was placed was measured. On the final day […] of the Morris water maze test, to perform a memory test, the platform was removed, free swimming was allowed for 60 seconds, and the residence time of a mouse in the quadrant in which the platform was placed was measured in percentage using a Smart program.

COc1cc2c(cc1OC)C(=O)C(CC1CCN(Cc3ccccc3)CC1)C2 (stereo not shown) [donepezil]
Residence time in quadrant (%): 59.222±2.918%
